How the values were obtained:
TYK2 kinase domain (JH1) = TYK2 kinase domain (JH1) (Homo sapiens (Human), UniProt P29597); assay: TYK2 Radioactive Kinase Assay; assay type: biochemical; conditions: compound at 10 μM; ATP at 10 μM; 120 min at room temp
Procedure: (§1) Peptide substrate, [KKSRGDYMTMQIG], (20 μM) was prepared in reaction buffer (20 mM Hepes pH 7.5, 10 mM MgCl2, 1 mM EGTA, 0.02% Brij35, 0.02 mg/mL BSA, 0.1 mM […], 2 mM DTT, 1% DMSO). TYK2 (Invitrogen) kinase was added, followed by compounds in DMSO. ^33PATP was added to initiate the reaction in ATP at 10 μM. The kinase reaction was incubated for 120 min at room temp and reactions were spotted onto P81 ion exchange paper (Whatman #3698-915), and then washed extensively in 0.75% phosphoric acid, prior to reading the radioactivity counts. For JAK2 (Invitrogen) kinase assay the peptide substrate poly[Glu:Tyr](4:1), 0.2 mg/ml was used, in the reaction carried out the same as for TYK2.
(§2) The TYK2 and JAK2 radioactive kinase assay measures the percent inhibition at the TYK2 kinase domain (JH1) and the percent inhibition at the JAK2 kinase domain (JH1). Results of the assay are expressed as percent inhibition at 10 μM.

JAK2 kinase domain (JH1) = JAK2 kinase domain (JH1) (Homo sapiens (Human), UniProt O60674); assay: JAK2 Radioactive Kinase Assay; assay type: biochemical; conditions: compound at 10 μM; ATP at 10 μM; substrate poly[Glu:Tyr](4:1)
Procedure: as §1, §2

[1] = biological target: human TYK2 (JH2domain-pseudokinase) (Homo sapiens (Human), UniProt P29597); assay: TYK2 JH2 Domain Binding Assay (KINOMEscan); conditions: 11-point 3-fold dilution, top concentration 30,000 nM, duplicate
Procedure: Binding constants for compounds of the present invention against the JH2 domain were determined by the following protocol for a KINOMEscan® assay (DiscoveRx). A fusion protein of a partial length construct of human TYK2 (JH2domain-pseudokinase) (amino acids G556 to D888 based on reference sequence NP_003322.3) and the DNA binding domain of NFkB was expressed in transiently transfected HEK293 cells. From these HEK 293 cells, extracts were prepared in M-PER extraction buffer (Pierce) in the presence of Protease Inhibitor Cocktail Complete (Roche) and Phosphatase Inhibitor Cocktail Set II (Merck) per manufacturers' instructions. The TYK2(JH2domain-pseudokinase) fusion protein was labeled with a chimeric double-stranded DNA tag containing the NFkB binding site (5′-GGGAATTCCC-3′) fused to an amplicon for qPCR readout, which was added directly to the expression extract (the final concentration of DNA-tag in the binding reaction is 0.1 nM).
Streptavidin-coated magnetic beads (Dynal M280) were treated with a biotinylated small molecule ligand for 30 minutes at room temperature to generate affinity resins for the binding assays. The liganded beads were blocked with excess biotin and washed with blocking buffer (SeaBlock (Pierce), 1% BSA, 0.05% Tween 20, 1 mM DTT) to remove unbound ligand and to reduce nonspecific binding.
The binding reaction was assembled by combining 16 μl of DNA-tagged kinase extract, 3.8 μl liganded affinity beads, and 0.18 μl test compound (PBS/0.05% Tween 20/10 mM DTT/0.1% BSA/2 μg/ml sonicated salmon sperm DNA). Extracts were used directly in binding assays without any enzyme purification steps at a ≥10,000-fold overall stock dilution (final DNA-tagged enzyme concentration <0.1 nM). Extracts were loaded with DNA-tag and diluted into the binding reaction in a two step process. First extracts were diluted 1:100 in 1× binding buffer (PBS/0.05% Tween 20/10 mM DTT/0.1% BSA/2 μg/ml sonicated salmon sperm DNA) containing 10 nM DNA-tag. This dilution was allowed to equilibrate at room temperature for 15 minutes and then subsequently diluted 1:100 in 1× binding buffer. All reactions were performed in polypropylene 384-well plates. Each was a final volume of 0.02 mL. Assays were incubated with shaking for 1 hour at room temperature. Then the beads were pelleted and washed with wash buffer (1×PBS, 0.05% Tween 20) to remove displaced kinase and test compound. The washed based were re-suspended in elution buffer (1×PBS, 0.05% Tween 20, 0.5 μM non-biotinylated affinity ligand) and incubated at room temperature with shaking for 30 minutes. The kinase concentration in the eluates was measured by qPCR. qPCR reactions were assembled by adding 2.5 μL of kinase eluate to 7.5 μL of qPCR master mix containing 0.15 μM amplicon primers and 0.15 μM amplicon probe. The qPCR protocol consisted of a 10 minute hot start at 95° C., followed by 35 cycles of 95° C. for 15 seconds, 60° C. for 1 minute.
Test compounds were prepared as 111× stocks in 100% DMSO. Kd values were determined using an 11-point 3-fold compound dilution series with three DMSO control points. All compounds for Kd measurements are distributed by acoustic transfer (non-contact dispensing) in 100% DMSO. The compounds were then diluted directly into the assays such that the final concentration of DMSO was 0.9%. The Kd values were determined using a compound top concentration of 30,000 nM. Kd measurements were performed in duplicate.
Binding constants (Kds) were calculated with a standard dose-response curve using the Hill equation: […]
The Hill Slope was set to −1. Curves were fitted using a non-linear least square fit with the Levenberg-Marquardt algorithm (Levenberg, K., A method for the solution of certain non-linear problems in least squares, Q. Appl. Math. 2, 164-168 (1944)).

Chain of human TYK2 (JH2domain-pseudokinase) (P29597 556-888): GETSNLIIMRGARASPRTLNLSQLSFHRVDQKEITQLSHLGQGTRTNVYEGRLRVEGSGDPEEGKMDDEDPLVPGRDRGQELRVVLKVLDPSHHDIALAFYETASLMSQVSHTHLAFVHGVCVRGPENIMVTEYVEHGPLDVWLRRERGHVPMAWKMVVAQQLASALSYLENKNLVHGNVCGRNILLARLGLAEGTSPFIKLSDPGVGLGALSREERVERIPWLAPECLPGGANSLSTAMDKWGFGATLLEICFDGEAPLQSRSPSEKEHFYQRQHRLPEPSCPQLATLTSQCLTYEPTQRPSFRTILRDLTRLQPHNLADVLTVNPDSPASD
Chain of TYK2 kinase domain (JH1) (P29597 897-1176): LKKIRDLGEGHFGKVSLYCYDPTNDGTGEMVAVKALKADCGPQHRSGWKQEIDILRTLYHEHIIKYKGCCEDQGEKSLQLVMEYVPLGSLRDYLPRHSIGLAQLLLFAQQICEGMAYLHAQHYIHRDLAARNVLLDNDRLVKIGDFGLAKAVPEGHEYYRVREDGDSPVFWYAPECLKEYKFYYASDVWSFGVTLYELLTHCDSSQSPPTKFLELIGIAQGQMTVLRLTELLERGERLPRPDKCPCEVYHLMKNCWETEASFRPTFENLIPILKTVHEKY
Chain of JAK2 kinase domain (JH1) (O60674 849-1124): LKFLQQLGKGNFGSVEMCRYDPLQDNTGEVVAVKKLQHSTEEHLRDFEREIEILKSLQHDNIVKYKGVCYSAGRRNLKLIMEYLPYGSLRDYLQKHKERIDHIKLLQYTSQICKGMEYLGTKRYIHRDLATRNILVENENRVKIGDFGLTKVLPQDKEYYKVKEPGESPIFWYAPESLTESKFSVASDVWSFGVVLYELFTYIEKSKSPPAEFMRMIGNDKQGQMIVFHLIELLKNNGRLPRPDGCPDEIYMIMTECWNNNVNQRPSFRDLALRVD

| SMILES | inhibition at 10 µM (TYK2 kinase domain (JH1)) | inhibition at 10 µM (JAK2 kinase domain (JH1)) | Kd [1] |
| --- | --- | --- | --- |
| [2H]C([2H])([2H])NC(=O)c1cnc(NC(=O)C2CC2)c2[nH]c(-c3ccccc3)cc12 [Compound I-3, 7-(cyclopropanecarboxamido)-N-(methyl-d3)-2-phenyl-1H-pyrrolo[2,3-c]pyridine-4-carboxamide] | < 50% | < 50% | 200 to 1000 pM |
| CNC(=O)c1cnc(NC(=O)C2CC2)c2[nH]c(-c3ccccc3C3(S(C)(=O)=O)CC3)cc12 [Compound I-5, 7-(cyclopropanecarboxamido)-N-methyl-2-(2-(1-(methylsulfonyl)cyclopropyl)phenyl)-1H-pyrrolo[2,3-c]pyridine-4-carboxamide] | < 50% | < 50% | 1000 to 10000 pM |
| [2H]C([2H])([2H])NC(=O)c1cnc(NC(=O)C2CC2)c2[nH]c(-c3cccc(-c4ncn(C)n4)c3)cc12 [Compound I-6, 7-(cyclopropanecarboxamido)-N-(methyl-d3)-2-(3-(1-methyl-1H-1,2,4-triazol-3-yl)phenyl)-1H-pyrrolo[2,3-c]pyridine-4-carboxamide] | < 50% | < 50% | < 200 pM |
| CNC(=O)c1cnc(NC(=O)C2CC2)c2[nH]c(-c3cccc(-n4ccc(C)n4)c3)cc12 [Compound I-7, 7-(cyclopropanecarboxamido)-N-methyl-2-(3-(3-methyl-1H-pyrazol-1-yl)phenyl)-1H-pyrrolo[2,3-c]pyridine-4-carboxamide] | < 50% | < 50% | 200 to 1000 pM |
| CNC(=O)c1cnc(NC(=O)C2CC2)c2[nH]c(-c3cccc(-n4nccn4)c3)cc12 [Compound I-8, 2-(3-(2H-1,2,3-triazol-2-yl)phenyl)-7-(cyclopropanecarboxamido)-N-methyl-1H-pyrrolo[2,3-c]pyridine-4-carboxamide] | < 50% | < 50% | 1000 to 10000 pM |
| CNC(=O)c1cnc(NC(=O)C2CC2)c2[nH]c(-c3ccc(C4=NC(C)(C)CO4)cc3OC)cc12 [Compound I-9, 7-(cyclopropanecarboxamido)-2-(4-(4,4-dimethyl-4,5-dihydrooxazol-2-yl)-2-methoxyphenyl)-N-methyl-1H-pyrrolo[2,3-c]pyridine-4-carboxamide] | < 50% | < 50% | 200 to 1000 pM |
| CNC(=O)c1cnc(NC(=O)C2CC2)c2[nH]c(-c3cc(-c4csc(C)n4)ccn3)cc12 [Compound I-10, 7-(cyclopropanecarboxamido)-N-methyl-2-(4-(2-methylthiazol-4-yl)pyridin-2-yl)-1H-pyrrolo[2,3-c]pyridine-4-carboxamide] | < 50% | < 50% | 200 to 1000 pM |
| CNC(=O)c1cnc(NC(=O)C2CC2)c2[nH]c(-c3cccc(C4=NC(C)(C)CS4)c3)cc12 [Compound I-11, 7-(cyclopropanecarboxamido)-2-(3-(4,4-dimethyl-4,5-dihydrothiazol-2-yl)phenyl)-N-methyl-1H-pyrrolo[2,3-c]pyridine-4-carboxamide] | < 50% | < 50% | 200 to 1000 pM |
| CNC(=O)c1cnc(NC(=O)C2CC2)c2[nH]c(-c3cc(-c4ncn(C)n4)ccn3)cc12 [Compound I-13, 7-(cyclopropanecarboxamido)-N-methyl-2-(4-(1-methyl-1H-1,2,4-triazol-3-yl)pyridin-2-yl)-1H-pyrrolo[2,3-c]pyridine-4-carboxamide] | < 50% | < 50% | < 200 pM |
| CNC(=O)c1cnc(NC(=O)C2CC2)c2[nH]c(-c3ccc4nc(C)n(C)c4c3F)cc12 [Compound I-92, 7-(cyclopropanecarboxamido)-2-(7-fluoro-1,2-dimethyl-1H-benzo[d]imidazol-6-yl)-N-methyl-1H-pyrrolo[2,3-c]pyridine-4-carboxamide] | – | – | < 200 pM |
| CNC(=O)c1cnc(Nc2ccn(C)n2)c2[nH]c(-c3ccccc3)cc12 [Compound I-93, N-methyl-7-((1-methyl-1H-pyrazol-3-yl)amino)-2-phenyl-1H-pyrrolo[2,3-c]pyridine-4-carboxamide] | – | – | 200 to 1000 pM |
| CNC(=O)c1cnc(NC(=O)C2CC2)c2[nH]c(-c3cccc([C@H]4C[C@H](OC)C4)c3F)cc12 [Compound I-94, 7-(cyclopropanecarboxamido)-2-(2-fluoro-3-((1r,3r)-3-methoxycyclobutyl)phenyl)-N-methyl-1H-pyrrolo[2,3-c]pyridine-4-carboxamide] | – | – | < 200 pM |
| CNC(=O)c1cnc(NC(=O)C2CC2)c2[nH]c(-c3cccc(C4CCCO4)c3F)cc12 (stereo not shown) [Compound I-95, 7-(cyclopropanecarboxamido)-2-(2-fluoro-3-(tetrahydrofuran-2-yl)phenyl)-N-methyl-1H-pyrrolo[2,3-c]pyridine-4-carboxamide] | – | – | < 200 pM |
| CNC(=O)c1cnc(NC(=O)C2CC2)c2[nH]c(N3CCCCC3)cc12 [Compound I-96, 7-(cyclopropanecarboxamido)-N-methyl-2-(piperidin-1-yl)-1H-pyrrolo[2,3-c]pyridine-4-carboxamide] | – | – | > 10000 pM |
| CNC(=O)c1cnc(Nc2ccn(C)n2)c2[nH]c(-c3cccc(-c4cnn(C)c4)c3F)cc12 [Compound I-97, 2-(2-fluoro-3-(1-methyl-1H-pyrazol-4-yl)phenyl)-N-methyl-7-((1-methyl-1H-pyrazol-3-yl)amino)-1H-pyrrolo[2,3-c]pyridine-4-carboxamide] | – | – | < 200 pM |
| CNC(=O)c1cnc(NC(=O)C2CC2)c2[nH]c(-c3ccc(C(=O)N4CC(F)(F)C4)cc3F)cc12 [Compound I-98, 7-(cyclopropanecarboxamido)-2-(4-(3,3-difluoroazetidine-1-carbonyl)-2-fluorophenyl)-N-methyl-1H-pyrrolo[2,3-c]pyridine-4-carboxamide] | – | – | < 200 pM |
| CNC(=O)c1cnc(Nc2ccn(C)n2)c2[nH]c(-c3cccc(-c4cnc(C)o4)c3F)cc12 [Compound I-99, 2-(2-fluoro-3-(2-methyloxazol-5-yl)phenyl)-N-methyl-7-((1-methyl-1H-pyrazol-3-yl)amino)-1H-pyrrolo[2,3-c]pyridine-4-carboxamide] | – | – | < 200 pM |
| CNC(=O)c1cnc(Nc2ccn(C)n2)c2[nH]c(-c3cccc(-c4cn5c(n4)COCC5)c3F)cc12 [Compound I-100, 2-(3-(5,6-dihydro-8H-imidazo[2,1-c][1,4]oxazin-2-yl)-2-fluorophenyl)-N-methyl-7-((1-methyl-1H-pyrazol-3-yl)amino)-1H-pyrrolo[2,3-c]pyridine-4-carboxamide] | – | – | < 200 pM |
| CNC(=O)c1cnc(NC(=O)C2CC2)c2[nH]c(-c3ccc(-c4ccn(C)n4)cc3F)cc12 [Compound I-101] | – | – | 200 to 1000 pM |
